# Experimental data taken from patent publication US8506950B2, “Degradable microcapsules” (ETH Zurich, priority 2008, dated 2013).
# Assays:
# rLHR [1] = target: T1, rLHR (Rattus norvegicus, UniProt P16235); assay: bLH-dependent luciferase expression in stable rLHR clone 6 (CK04); type: cell-based; set-up: Full-length cDNAs encoding the LHRs of rat (r) and bovine (b) origin; expressed in transfected cells; host or cells: CK04: HEK293T stably cotransfected with pLEN-rLHR and pZeoSV2(+), clone 6; settings: clone 6, 500 ng/ml bLH, pCRE-Luc
# T1 sequence (P16235 27-700): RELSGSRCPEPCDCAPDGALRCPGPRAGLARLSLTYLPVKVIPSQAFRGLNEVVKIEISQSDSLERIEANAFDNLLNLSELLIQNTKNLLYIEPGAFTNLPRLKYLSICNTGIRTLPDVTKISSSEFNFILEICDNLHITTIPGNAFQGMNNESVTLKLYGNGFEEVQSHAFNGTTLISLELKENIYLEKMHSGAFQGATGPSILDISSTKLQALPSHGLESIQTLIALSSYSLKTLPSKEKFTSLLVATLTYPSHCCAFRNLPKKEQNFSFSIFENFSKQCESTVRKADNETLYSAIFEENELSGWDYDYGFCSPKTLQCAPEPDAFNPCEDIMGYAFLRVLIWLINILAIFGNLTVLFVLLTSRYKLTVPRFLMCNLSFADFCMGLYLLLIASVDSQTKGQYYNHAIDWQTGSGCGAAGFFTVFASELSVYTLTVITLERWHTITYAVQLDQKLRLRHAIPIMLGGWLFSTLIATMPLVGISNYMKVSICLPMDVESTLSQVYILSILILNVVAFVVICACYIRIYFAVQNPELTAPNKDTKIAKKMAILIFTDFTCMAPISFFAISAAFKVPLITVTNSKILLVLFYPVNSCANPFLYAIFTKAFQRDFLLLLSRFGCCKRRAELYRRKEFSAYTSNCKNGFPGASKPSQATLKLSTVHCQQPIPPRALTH
# Protocol: HEK293T cells were cotransfected with pLEN-LHR and pZeoSV2. After clonal expansion several single clones were transiently transfected with pCRE-Luc and screened for the functional expression of rLHR by their ability to respond to bLH. […] (□) no bLH; (▪) 500 ng/ml bLH. Luciferase expression was expressed as relative light units (RLU).
# (§1) Functional expression of LHRs on the cell surface results in the stimulation of PKA and an increase of intracellular cAMP in response to bLH. It was evaluated whether the activated LHR-signaling may induce a PKA-responsive promoter. […] 24 hours post-transfection the cells were induced by bLH and the SEAP expression was determined over time. […] In comparing rLHR- and bLHR-expressing cells a 3-fold increase in maximal SEAP expression in response to bLH of the rLHR over the bLHR was detected. […]
# (§2) The intracellular cAMP production of cells was quantified using the cAMP Fluorescence Polarization (FP) Biotrak Immunoassay System (GE Healthcare Bio-Sciences GmbH, Otelfingen, Switzerland, Cat No. RPN3595) according to the manufacturer's protocol. The expression of firefly luciferase was determined with the Tropix Luciferase Assay Kit (Applied Biosystems, Bedford, USA, Cat No. BC100L). […] Enhanced YFP-expression was detected by fluorescence microscopy (Leica Microsystems, Wetzlar, Germany)
# rLHR [2] = target: T1, rLHR; assay: PCRE dependent SEAP expression over time in HEK293T expressing rLHR or bLHR; type: cell-based; set-up: Full-length cDNAs encoding the LHRs of rat (r) and bovine (b) origin; expressed in transfected cells; host or cells: HEK293T, transient transfection with pLEN-rLHR; settings: 500 ng/mL bLH, maximal SEAP expression
# Protocol: HEK293T cells were transiently co-transfected for PCRE dependent SEAP expression and constitutive bLHR- or rLHR expression or with the empty vector pcDNA3.1(+). 24 hours post-transfection the cells were induced by addition of 500 ng/mL bLH or cultivated non-induced. […] (▴) rLHR+bLH; (▪) bLHR+bLH; (×) rLHR-bLH; (♦) bLHR-bLH;
# as §1, §2
substance,measurement,setting,value
bovine luteinizing hormone [bLH],induction of luciferase expression in response to bLH,rLHR [1],17.0±0.2 fold
same,SEAP production of rLHR-expressing cells relative to bLHR-expressing cells,rLHR [2],3 fold
